Test results taken from patent publication US8790654B2, “Glycosylceramide adjuvant for saccharide antigens” (Novartis AG, priority 2004, dated 2014).
Entries after “also recorded” stand apart in the source; their conditions may differ.

Tests used:
Assay type in all cases: in vivo
[1] = test system: MenC polysaccharide; assay: MenC-specific Ig titre in mice immunised with MenC, MenC+CRM or MenC-CRM conjugate with or without α-GalCer; conditions: 30 μg MenC-CRM conjugate and α-GalCer, compared with MenC-CRM conjugate and PBS; three immunisations
Protocol: C) Immunisation schedule for mice with different polysaccharides, plain, conjugated or admixed with protein carriers, with and without α-GalCer. Ten groups of wild-type C57BL/6 mice were primed on day 0 with: 1) PBS, 2) 0.1 μg with α-GalCer, 3) 10 μg MenC polysaccharide, 4) 20 μg CRM protein carrier, 5) 30 μg of a MenC-CRM conjugate, 6) 10 μg MenC polysaccharide admixed with CRM protein carrier, or the compositions in 3)-6) and α-GalCer (groups 7-10). Mice were boosted two and four weeks after they were primed with the same composition with which they were primed. Mice were bled 2, 4 and 6 weeks after initial priming (2wp1, 2wp2 and 2wp3) and the levels of antibodies against both the MenC polysaccharide and the CRM carrier were measured.
FIG. 5: α-GalCer enhances the specific antibody response against both the MenC polysaccharide and the CRM protein carrier in a MenC-CRM conjugate. Wild-type mice were primed with 10 μg MenC polysaccharide, 20 μg CRM protein carrier, 10 μg MenC polysaccharide admixed with CRM protein carrier (MenC+CRM), or 30 μg of a MenC-CRM conjugate, or the same compositions with α-GalCer. […]
FIG. 7: Antibody response is enhanced in mice immunised with α-GalCer and MenC-CRM conjugate. […] The MenC-specific titre was measured one week post the second immunisation (1wp2) and one week post third immunisation (1wp3).

[2] = test system: S. pneumoniae polysaccharides; assay: S. pneumoniae-specific antibody titres by ELISA in mice immunised with Streptopur with or without α-GalCer
[3] = test system: S. pneumoniae-specific B cells; assay: Number of S. pneumoniae-specific B cells in spleens by Elispot; conditions: mice primed with 0.1 or 1.0 μg α-GalCer and boosted with 11.5 μg Streptopur 12 weeks later, compared with PBS prime and Streptopur boost; Elispot at 18-22 weeks
[4] = test system: MenA polysaccharide; assay: MenA-specific antibody titres in mice immunised with MenA polysaccharide or MenA-CRM conjugate with or without α-GalCer
Protocol: FIG. 6: α-GalCer enhances the immune response to a MenA-CRM conjugate. Mice were immunised with 10 μg MenA polysaccharide or MenA-CRM conjugate with or without α-GalCer. Antibodies titres against the MenA polysaccharide were measured 4, 8 and 12 days post priming. α-GalCer enhanced the immune response to the MenA polysaccharide.

[5] = test system: Hib; assay: Hib-specific Ig titre in mice immunised with Hib-HSA conjugate mixed with PBS, α-GalCer or MF59; conditions: 15 μg Hib-HSA conjugate mixed with α-GalCer, compared with Hib-HSA conjugate and PBS; three immunisations; 1wp2 and 1wp3
Protocol: FIG. 11: Antibody response is enhanced in mice immunised with α-GalCer and Hib-HSA conjugate. […] Each group of mice was immunised three times. The Hib-specific titre was measured 1 week post the second immunisation (1wp2) and 1 week post the third immunisation (1wp3).

`CCCCCCCCCCCCCCCCCCCCCCCCCC(=O)N[C@@H](CO[C@H]1O[C@H](CO)[C@H](O)[C@H](O)[C@H]1O)[C@H](O)[C@H](O)CCCCCCCCCCCCCC` [α-GalCer, α-galactosylceramide] was tested. Which “MenC-specific Ig titres” value [1] did it give?
The value was “enhanced; also recorded: significant increase”.

What about the “S. pneumoniae specific IgM antibodies (geomean) by age of mice” value ([2]; 8 days after priming mice of different ages with 3.5 μg Streptopur and 0.1 μg α-GalCer, compared with Streptopur alone) of the same compound?
The value was “suppresses; also recorded: suppression”.

And the “S. pneumoniae-specific antibody titres in NKT-deficient mice” value ([2]; JA18−/−, CD1d−/− and CD1d−/+ mice primed with 3.5 μg Streptopur and 0.1 μg α-GalCer, compared with Streptopur alone, 4, 8, 12 days after priming)?
Its value is “no significant difference”.

What about the “S. pneumoniae-specific antibody titers after boost” value ([2]; mice primed with Streptopur and 0.1 μg α-GalCer and boosted with Streptopur, compared with primed and boosted with Streptopur alone, 8 days after boosting) of the same compound?
Its value is “lower”.

What about the “S. pneumoniae-specific antibody titres (IgM, geomean)” value ([2]; wild-type C57BL/6 mice primed i.m. with Streptopur and 0.1 μg α-GalCer, compared with Streptopur alone, 4, 8, 12 days after priming) of the same compound?
Its value is “lower; also recorded: reduced”.

What about the “Number of S. pneumoniae-specific B cells per 10^6 splenocytes” value [3] of the same compound?
Its value is “lower numbers”.

What about the “MenA-specific Ig titres” value ([4]; MenA-CRM conjugate and α-GalCer, compared with conjugate without α-GalCer, 4, 8, 12 days post priming) of the same compound?
Its value is “enhances; also recorded: increase”.

And the “Inhibitory action on the response to unconjugated MenA saccharides” value ([4]; unconjugated MenA polysaccharide with α-GalCer)?
Its value is “not observed”.

What about the “Hib-specific Ig titres” value [5] of the same compound?
Its value is “enhanced; also recorded: considerably higher”.
